Laboratory results: patent US20200339625A1, “NOVEL RADIOMETAL-BINDING COMPOUNDS FOR DIAGNOSIS OR TREATMENT OF PROSTATE SPECIFIC MEMBRANE ANTIGEN-EXPRESSING CANCER” (PROVINCIAL HEALTH SERVICES AUTHORITY, priority 2017, published 2020)
Blank lines part the entries; values can stand above or below the molecule they belong to.

What was measured:
[1] = system: metastatic prostate cancer; settings: advanced metastatic prostate cancer patients; cited from earlier work
PSMA on LNCaP cells = target: T1, PSMA on LNCaP cells (Homo sapiens, UniProt Q04609); experiment: In vitro competition binding assay (displacement of 18F-DCFPyL); settings: for Ki: inhibition of 18F-DCFPyL binding to PSMA on LNCaP cells, n=3
T1 construct: endogenous in cells; host or cells: LNCaP prostate cancer cells
Experimental: 1.14 In Vitro Competition Binding Assay
In vitro competition binding assays were conducted as previously reported using LNCaP prostate cancer cells and ^18F-DCFPyL as the radioligand. ^18 Briefly, LNCaP cells (400,000/well) were plated onto a 24-well poly-D-lysine coated plate for 48 h. Growth media was removed and replaced with HEPES buffered saline (50 mM HEPES, pH 7.5, 0.9% sodium chloride) and the cells were incubated for 1 h at 37° C. ^18F-DCFPyL (0.1 nM) was added to each well (in triplicate) containing various concentrations ([…]) of tested compounds (Lu-PSMA-617 or Lu-HTK01169). Non-specific binding was determined in the presence of 10 μM non-radiolabeled DCFPyL. The assay mixtures were further incubated for 1 h at 37° C. with gentle agitation. Then, the buffer and hot ligand were removed, and cells were washed twice with cold HEPES buffered saline. To harvest the cells, 400 μL of 0.25% trypsin solution was added to each well. Radioactivity was measured on a PerkinElmer (Waltham, Mass.) Wizard2 2480 automatic gamma counter. Nonlinear regression analyses and Ki calculations were performed using the GraphPad Prism 7 software.

[2] = system: mice bearing PSMA-expressing LNCAP cancer xenografts; experiment: Biodistribution of 68Ga-labeled compounds; type: in vivo; settings: 1 h post-injection
In short: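 NOD-SCID IL2RγKO male mice carried subcutaneous LNCaP xenografts grown to 5-8 mm over 5-6 weeks. Organs and blood were collected at 1 or 3 h after injection of the radiotracer and gamma-counted. Uptake was normalized to injected dose via a standard curve and expressed as %ID/g.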

[3] = system: mice bearing LNCaP tumor xenografts; experiment: PET/CT imaging of 68Ga-labeled compounds; type: in vivo; settings: PET/CT images
In short: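 Male NOD SCID IL2Rγ KO mice bore subcutaneous LNCaP xenografts (1×10^7 cells, tumours 5-8 mm) and received 6-8 MBq tracer via tail vein under 2% isoflurane. At 50 min p.i., a 10-min CT and a 10-min static PET were acquired. For the 3 h time point, scanning began at 170 min p.i. with a 15-min static PET.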

T1 sequence (Q04609 whole entry): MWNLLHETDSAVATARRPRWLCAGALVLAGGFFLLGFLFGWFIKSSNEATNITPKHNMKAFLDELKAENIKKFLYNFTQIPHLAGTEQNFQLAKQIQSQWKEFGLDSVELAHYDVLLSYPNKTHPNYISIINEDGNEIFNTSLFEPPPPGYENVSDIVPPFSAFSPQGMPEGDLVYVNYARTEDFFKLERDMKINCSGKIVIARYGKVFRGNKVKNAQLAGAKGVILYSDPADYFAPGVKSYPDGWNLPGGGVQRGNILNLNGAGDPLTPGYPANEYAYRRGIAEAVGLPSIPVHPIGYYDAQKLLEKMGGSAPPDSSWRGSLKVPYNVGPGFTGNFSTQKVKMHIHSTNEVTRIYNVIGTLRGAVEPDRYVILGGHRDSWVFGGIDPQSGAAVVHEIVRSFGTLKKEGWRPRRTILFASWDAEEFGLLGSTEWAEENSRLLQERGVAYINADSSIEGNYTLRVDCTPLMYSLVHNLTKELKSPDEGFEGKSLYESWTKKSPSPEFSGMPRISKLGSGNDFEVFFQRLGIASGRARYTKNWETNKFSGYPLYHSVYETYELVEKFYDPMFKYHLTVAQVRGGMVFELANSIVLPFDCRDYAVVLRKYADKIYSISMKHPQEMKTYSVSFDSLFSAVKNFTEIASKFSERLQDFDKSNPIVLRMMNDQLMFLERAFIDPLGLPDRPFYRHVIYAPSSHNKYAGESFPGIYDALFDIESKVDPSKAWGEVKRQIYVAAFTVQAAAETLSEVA

SMILES: O=C([O-])CC[C@H](NC(=O)N[C@@H](CCCCNC(=O)[C@H](Cc1ccc2ccccc2c1)NC(=O)[C@H]1CC[C@H](CNC(=O)CN2CCN(CC(=O)[O-])CCN(CC(=O)[O-])CCN(CC(=O)[O-])CC2)CC1)C(=O)[O-])C(=O)[O-].[225Ac].[H+].[H+].[H+] [^225Ac-PSMA-617]
response [1]: impressive responses

SMILES: O=C([O-])CN1CCN(CC(=O)[O-])CCN(CC(=O)NCC2CCC(C(=O)N[C@@H](Cc3ccc4ccccc4c3)C(=O)NCCCC[C@H](NC(=O)N[C@@H](CCC(=O)O)C(=O)O)C(=O)O)CC2)CCN(CC(=O)[O-])CC1.[Lu+3] (stereo partly shown) [Lu-PSMA-617, reference compound]
Ki (PSMA on LNCaP cells): 0.24 ± 0.06 nM

Adrenal glands uptake [2]: 3.55 ± 2.33 % ID/g
Blood uptake [2]: 1.56 ± 0.57 % ID/g
Bone uptake [2]: 0.70 ± 0.33 % ID/g
Brain uptake [2]: 0.06 ± 0.03 % ID/g
Fat uptake [2]: 1.03 ± 0.67 % ID/g
Heart uptake [2]: 0.56 ± 0.24 % ID/g
Intestine uptake [2]: 0.44 ± 0.12 % ID/g
Kidneys uptake [2]: 85.6 ± 73.5 % ID/g
Lacrimal uptake [2]: 1.00 ± 0.56 % ID/g
Liver uptake [2]: 0.46 ± 0.10 % ID/g
Lungs uptake [2]: 1.66 ± 0.67 % ID/g
Muscle uptake [2]: 0.48 ± 0.37 % ID/g
Pancreas uptake [2]: 0.57 ± 0.20 % ID/g
Salivary uptake [2]: 1.86 ± 0.91 % ID/g
Seminal uptake [2]: 10.6 ± 10.9 % ID/g
Spleen uptake [2]: 3.36 ± 2.54 % ID/g
Stomach uptake [2]: 0.17 ± 0.10 % ID/g
Tail uptake [2]: 0.98 ± 0.38 % ID/g
Testes uptake [2]: 0.56 ± 0.18 % ID/g
Thyroid uptake [2]: 0.76 ± 0.33 % ID/g
Tumor uptake [2]: 13.3 ± 5.44 % ID/g
Tumor:Blood ratio [2]: 8.57 ± 2.83
Tumor:Muscle ratio [2]: 35.0 ± 18.7
Tumor:kidney ratio [2]: 0.27 ± 0.20
Urine uptake [2]: 844 ± 645 % ID/g
excretion pathway [3]: excreted mainly via the renal pathway
tumor uptake (qualitative comparison) ([3]; compounds of FIG. 13): comparable
SMILES: O=C([O-])CN1CCN(CC(=O)[O-])CCN(CC(=O)NCC2CCC(C(=O)NC(Cc3ccc4cc5ccccc5cc4c3)C(=O)NCCCCC(NC(=O)NC(CCC(=O)O)C(=O)O)C(=O)O)CC2)CCN(CC(=O)[O-])CC1.[68Ga+3] (stereo not shown) [^68Ga-HTK03027]

SMILES: O=C([O-])CN1CCN(CC(=O)[O-])CCN(CC(=O)NCCCC[C@H](NC(=O)[C@H](CCC(=O)O)NC(=O)CCCc2ccc(I)cc2)C(=O)NC[C@H]2CC[C@H](C(=O)N[C@@H](Cc3ccc4ccccc4c3)C(=O)NCCCC[C@H](NC(=O)N[C@@H](CCC(=O)O)C(=O)O)C(=O)O)CC2)CCN(CC(=O)[O-])CC1.[Lu+3] [Lu-HTK01169]
Ki (PSMA on LNCaP cells): 0.04 ± 0.01 nM
improvement in PSMA binding compared to Lu-PSMA-617 (PSMA on LNCaP cells; ratio of Ki values): 6 fold
